The source made the active and inactive calls. How the calls were made is not given here.
Tested on: not listed separately
Assay: cytotoxicity in control HMLE_shGFP mammary epithelial cells, dose response, counter-screen for breast cancer stem cell killers, cell-based, CellTiter-Glo luminescence, dry powder, set 2 (AID 588846)
Conditions: HMLE_shGFP viability, CellTiter-Glo luminescence, 72 h; at 32 µM (top of the series)

Compound	viability fraction
O=C(NC1CCCC1)c1ccc(COc2ccccc2)o1	95.7% (inactive)
O=C(/C=C/c1ccc(-c2ccccc2)cc1)NC1=NCCS1	13.7% (inactive)
Cc1csc(NC(=O)c2ccc(CNc3ccccn3)o2)n1	80.2% (inactive)
CC(C)c1ccc(/C=C/C(=O)NC2=NCCS2)cc1	14% (inactive)
O=C(/C=C/c1ccc(Cl)c(Cl)c1)NC1=NCCS1	22.2% (inactive)
Cc1ccc(/C=C/C(=O)NC2=NCCS2)cc1	88.1% (inactive)
CCc1ccc(/C=C/C(=O)NC2=NCCS2)cc1	92.9% (inactive)

Tested on: HMLE_shGFP viability, CellTiter-Glo luminescence, 72 h
Assay: as above
Conditions: not given

Compound	AC50 [µM]
Cc1csc(NC(=O)c2ccc(COc3cccc(F)c3)o2)n1	4.4
Cc1csc(NC(=O)c2ccc(COc3ccccc3F)o2)n1	0.36
COc1ccc(/C=C/C(=O)NC2=NCCS2)c(OC)c1	30

— PubChem BioAssay AID588846 (Broad Institute, 2011)
